# Data taken from patent US20250325662A1, “METHODS OF TREATING AND PREDICTING NON-RESPONSE TO ANTI-TNF TREATMENT IN SUBJECTS WITH GASTROINTESTINAL TRACT DISEASES” (BT Bidco, Inc., priority 2020, published 2025).
# Structures can show the parent of a compound that is named as a salt.
# Test system: IL-6, GM-CSF, IL-15, IL-2, IL-12, IL-13, TNF-α, and INF-γ
smiles,measurement,setting,value
C[C@@H]1CCN(C(=O)CC#N)C[C@@H]1N(C)c1ncnc2[nH]ccc12 [tofacitinib citrate],IL-6 expression in plasma,"PO or IC administration, 1 h and 3 h post-treatment",inhibition of IL-6 expression
same,inhibition of IL-6 expression in colon tissue,all IC treated groups and high dose PO group (45 mg/kg),sustained through 24 h post-dose
same,IL-6 inhibition in colon tissue,"low dose PO group (15 mg/kg), by 12 h post-dose",Recovery from IL-6 inhibition
